pEC50: −log10 of the molar value.

The term pEC50 denotes the negative decadic logarithm of the EC50, by convention in mol/L. A low value points to a high EC50.

This experiment relates to Human immunodeficiency virus 1. In words: Inhibition of HIV1 replication. The class given is functional, organism-based.
Consider `O=c1c(O)c(-c2ccc(O)c(O)c2)oc2cc(O)cc(O)c12` [QUERCETIN], for which the pEC50 was above 4.00.
`COc1cc(O)c2c(=O)cc(-c3ccc(O)cc3)oc2c1` [GENKWANIN] showed a pEC50 of at most 4.00.
For `O=c1c(O)c(-c2ccc(O)cc2O)oc2cc(O)cc(O)c12` [MORIN], the pEC50 was above 4.00.
Consider `O=c1c(O)c(-c2cc(O)c(O)c(O)c2)oc2cc(O)ccc12` [ROBINETIN], for which the pEC50 is above 4.00.
Take `COc1ccc(-c2cc(=O)c3c(OC)c(OC)c(OC)cc3o2)cc1OC` [SINENSETIN]: the pEC50 was at most 4.00.
With `O=c1cc(-c2ccc(O)c(O)c2)oc2ccccc12`, the pEC50 is at most 4.00.
`O=c1c(O)c(-c2cc(O)c(O)c(O)c2)oc2cc(O)cc(O)c12` [MYRICETIN] showed a pEC50 above 4.00.
`COc1cc(O)c2c(=O)c(O)c(-c3ccc(O)c(O)c3)oc2c1` [RHAMNETIN] showed a pEC50 above 4.00.
`COc1ccc(-c2cc(=O)c3c(OC)c(OC)c(OC)cc3o2)cc1` had a pEC50 of at most 4.00.
Turning to `O=c1cc(-c2ccc(O)cc2)oc2cc(O)cc(O)c12` [APIGENIN], the pEC50 is at most 4.00.
As to `O=c1cc(-c2ccccc2)oc2cc(O)ccc12` [7-HYDROXYFLAVONE], the pEC50 was at most 4.00.
As for `O=c1c(O)c(-c2ccc(O)c(O)c2)oc2cc(O)c(O)c(O)c12` [QUERCETAGETIN], the pEC50 is above 4.00.
In the case of `COc1ccc(-c2cc(=O)c3c(OC)c(OC)c(OC)c(OC)c3o2)cc1` [TANGERETIN] it was at most 4.00.
For the molecule `O=c1cc(-c2ccccc2)oc2cc(O)cc(O)c12` [CHRYSIN], the pEC50 was at most 4.00.
The molecule `COc1ccc(-c2cc(=O)c3c(OC)c(OC)ccc3o2)cc1OC` had a pEC50 of at most 4.00.
`O=c1c(O)c(-c2ccc(O)c(O)c2)oc2cc(O)ccc12` [FISETIN] had a pEC50 above 4.00.
For `COc1ccc(-c2cc(=O)c3c(O)cc(O)cc3o2)cc1` [ACACETIN], the pEC50 was at most 4.00.
On to `O=c1c(O)c(-c2ccc(O)cc2)oc2cc(O)cc(O)c12` [KAEMPFEROL], for which the pEC50 is above 4.00.
Take `COc1ccc(-c2oc3cc(O)ccc3c(=O)c2OC)cc1`: the pEC50 was at most 4.00.
With `COc1c(O)cc2oc(-c3ccc(O)c(O)c3)cc(=O)c2c1O` [EUPAFOLIN], the pEC50 is above 4.00.

The values are drawn from ChEMBL document CHEMBL1140603, “Simple criterion for selection of flavonoid compounds with anti-HIV activity” (Bioorg Med Chem Lett, 2007).
